The test system of experiment [1] is Vero. Put plainly: Cytotoxicity against african green monkey Vero cells by sulforhodamine B assay. In kind it is cell-based. To be noted: Chlorocebus sabaeus.
Experiment [2] has as its system NCI-H187. Put plainly: Cytotoxicity against human NCI-H187 cells by sulforhodamine B assay. In kind it is functional, cell-based. For orientation: The SRB assay estimates cell density from bound dye.
The test system of experiment [3] is Mycobacterium tuberculosis. Put plainly: Antimycobacterial activity against Mycobacterium tuberculosis H37Ra after […] by microplate alamar Blue assay. It counts as functional. For orientation: Alamar Blue is a resazurin reagent that responds to reducing activity.
For experiment [4], the system named is KB. Put plainly: Cytotoxicity against human KB cells by sulforhodamine B assay. In kind it is functional, cell-based.

≈ marks a conversion by molar mass, not a printed value.

Turning to `CC(C)=CCc1c2c(c(O)c3c(=O)c(O)c(-c4ccc(O)cc4)oc13)C=CC(C)(C)O2` [DEHYDROLUPINIFOLINOL], the half-maximal inhibitory concentration (IC50) in experiment [1] turned out to be 11.1 µg/mL (≈ 26.4 µM); in experiment [2], 3.9 µg/mL (≈ 9.28 µM); in experiment [4], 5.8 µg/mL (≈ 13.8 µM). Besides, 12.5 µg/mL (≈ 29.7 µM) was the least that counted as inhibitory in experiment [3] (MIC).

As for `COc1cccc2c1C(=O)c1c(O)c3c(c(O)c1C2=O)C[C@@](O)(C(=O)CO)C[C@@H]3O[C@H]1C[C@H](N)[C@H](O)[C@H](C)O1` [DOXORUBICIN], the values for the half-maximal inhibitory concentration (IC50) in experiment [2] and in experiment [4] were 0.042 µg/mL (≈ 0.0773 µM) and 0.12 µg/mL (≈ 0.221 µM), respectively.

On to `Cc1c2ccncc2c(C)c2c1[nH]c1ccccc12` [ELLIPTECINE], for which the figures for the IC50 in experiment [2] and in experiment [4] were 0.44 µg/mL (≈ 1.79 µM) and 0.37 µg/mL (≈ 1.5 µM), respectively.

As to `CC(C)=CCc1c(O)c2c(c3c1OC(C)(C)C=C3)O[C@H](c1ccc(O)cc1O)CC2=O` [ERIOSEMAONE A], the half-inhibitory concentration (IC50) was 6 µg/mL (≈ 14.2 µM) in experiment [2] and 5.8 µg/mL (≈ 13.7 µM) in experiment [4]. The same compound came in with an MIC in experiment [3] of 12.5 µg/mL (≈ 29.6 µM).

Regarding `CC(C)=CCc1c2c(c(O)c3c1O[C@H](c1ccc(O)cc1O)CC3=O)C=CC(C)(C)O2` [FLEMICHIN D], the results for the half-inhibitory concentration (IC50) in experiment [2] and in experiment [4] were 2.1 µg/mL (≈ 4.97 µM) and 3.3 µg/mL (≈ 7.81 µM), respectively. The compound further returned an MIC in experiment [3] of 12.5 µg/mL (≈ 29.6 µM).

Consider `NNC(=O)c1ccncc1` [ISONIAZID], for which it took 0.023 µg/mL (≈ 0.168 µM) to inhibit growth in experiment [3] (MIC).

`COc1ccc([C@H]2Oc3c(CC=C(C)C)c4c(c(O)c3C(=O)[C@@H]2O)C=CC(C)(C)O4)cc1` [KHONKLONGINOL A]: the values for the IC50 in experiment [1], in experiment [2] and in experiment [4] were 7.9 µg/mL (≈ 18.1 µM), 3 µg/mL (≈ 6.87 µM) and 3.1 µg/mL (≈ 7.1 µM), respectively. Further, in experiment [3], the minimum inhibitory concentration (MIC) was determined as 25 µg/mL (≈ 57.3 µM).

Take `COc1ccc([C@H]2Oc3c(CC=C(C)C)c4c(c(O)c3C(=O)[C@H]2O)C=CC(C)(C)O4)cc1` [KHONKLONGINOL B]: the IC50 in experiment [1] was 6.9 µg/mL (≈ 15.8 µM); in experiment [2], 4.3 µg/mL (≈ 9.85 µM); in experiment [4] it was 3.8 µg/mL (≈ 8.71 µM). The minimum inhibitory concentration (MIC) in experiment [3] was 50 µg/mL (≈ 115 µM).

For the compound `COc1ccc(-c2oc3c(CC=C(C)C)c4c(c(O)c3c(=O)c2O)C=CC(C)(C)O4)cc1` [KHONKLONGINOL F], the IC50 stood at 7 µg/mL (≈ 16.1 µM) in experiment [1], 2.4 µg/mL (≈ 5.52 µM) in experiment [2] and 6.7 µg/mL (≈ 15.4 µM) in experiment [4]. In addition, the MIC in experiment [3] came to 100 µg/mL (≈ 230 µM).

Consider `COc1ccc([C@@H]2CC(=O)c3c(O)c4c(c(CC=C(C)C)c3O2)OC(C)(C)C=C4)c(O)c1` [KHONKLONGINOL H], for which the half-maximal inhibitory concentration (IC50) turned out to be 6.4 µg/mL (≈ 14.7 µM) in experiment [1], 3.3 µg/mL (≈ 7.56 µM) in experiment [2] and 5.4 µg/mL (≈ 12.4 µM) in experiment [4]. This compound also registered an MIC in experiment [3] of 25 µg/mL (≈ 57.3 µM).

For `CC(C)=CCc1c2c(c(O)c3c1O[C@H](c1ccc(O)cc1)[C@@H](O)C3=O)C=CC(C)(C)O2` [LUPINIFOLINOL], the IC50 in experiment [2] stood at 3.5 µg/mL (≈ 8.28 µM); in experiment [4] it was 1.73 µg/mL (≈ 4.09 µM). The compound also showed a minimal inhibitory concentration (MIC) in experiment [3] of 25 µg/mL (≈ 59.2 µM).

For `CC(C)=CCc1c2c(c(O)c3c1O[C@H](c1ccc(O)cc1)CC3=O)C=CC(C)(C)O2` [LUPINIFOLIN], the values for the concentration for half-maximal inhibition (IC50) in experiment [2] and in experiment [4] were 6.5 µg/mL (≈ 16 µM) and 2.4 µg/mL (≈ 5.9 µM), respectively. The compound also yielded a minimal inhibitory concentration (MIC) in experiment [3] of 12.5 µg/mL (≈ 30.8 µM).

The compound `CN[C@@H]1[C@H](O[C@H]2[C@H](O[C@H]3[C@H](O)[C@@H](O)[C@H](N=C(N)N)[C@@H](O)[C@@H]3N=C(N)N)O[C@@H](C)[C@]2(O)C=O)O[C@@H](CO)[C@H](O)[C@H]1O` [STREPTOMYCIN] came in with an MIC in experiment [3] of 0.156 µg/mL (≈ 0.268 µM).

A word on the IC50: it is the point on the concentration scale where inhibition reaches its midpoint. The term MIC denotes the lowest concentration found to suppress growth.
